According to patent publication US20030212144A1, “Method for inducing an estrous cycle and pregnancy in a female mammal” (priority 2003, published 2003):
No end group written: not given here.

What was measured:
old acyclic rats = conditions: cited from earlier work
[1] = test system: release of serotonin (5-HT) from the hypothalamus; assay: 5-HT release and content, static in vitro incubation of hypothalami, HPLC-EC; assay type: cell-based, Sprague-Dawley rats; conditions: for 5-HT release: second incubation period, control 41.0±21; for content of 5-HT at the end of the experiment: p<0.05
Protocol: (§1) Four- to six-month old male Sprague-Dawley rats were obtained from Amitech (Omaha, Nebr.). These rats were housed in groups in air-conditioned (23±2° C.) and light controlled (lights on from 0700-1900 hours) animal rooms. They were provided rat chow and water ad libitum.
(§2) On the day of the experiment, the rats were sacrificed between 1200-1300 hrs. The brains were removed immediately and the hypothalami were dissected out using the following boundaries: the posterior part of the optic chiasmas the anterior limit, the anterior part of the mammillary bodies as the posterior limit, and the lateral hypothalamic sulci as the lateral limits (Palazzolo et al., Life Sci. 47: 2105-2109 (1990); Palazzolo et al., Life Sci. 51: 1797-1802 (1992)).
(§3) The hypothalami were weighed and divided into two halves along the sagittal plane and placed in a 12×75 mm glass tube containing 300 μl of Krebs-Ringer Henseleit (KRH) solution. The hypothalami were incubated in a static in vitro incubation system as described previously (Palazzolo et al., Life Sci. 47: 2105-2109 (1990); Palazzolo et al., Life Sci. 51: 1797-1802 (1992)). Briefly, the incubation system consisted of a plexiglass water bath, a magnetic circulator fin, and a thermostat coil. The bath was filled with distilled water and the thermostat was switched on at least an hour before the perfusion. The temperature in the water bath was maintained at 37° C. The magnetically controlled circulator fins stirred the water constantly to maintain a uniform temperature throughout the water bath. The incubation medium, KRH, consisted of 117 mM NaCl, 4.7 mM KCl, 1.2 mM MgSO4, 1.2 mM KH2PO4, 2.5 mM CaCl2, 24.8 mM NaHCO3, 11.1 mM glucose, 0.1 mg/ml ascorbic acid in 1 L of pyrogen free water. During the experiment, the incubation medium was supplied a mixture of 95% oxygen and 5% carbon dioxide constantly through gas inlet lines at a slow and steady rate to avoid turbulence. To stabilize the release of monoamines, each hypothalamus was preincubated in KRH for 60 min. Following this, the hypothalami were incubated for four 60-min periods as described below.
(§4) During the first incubation period, the hypothalami were incubated in KRH for 60 min to measure the basal release of monoamines and their metabolites. During the second incubation period, the hypothalami were incubated in KRH containing 0, 0.1 mM, 1.0 mM, or 10 mM of deprenyl. After this, the hypothalami were rinsed and incubated in KRH alone (without deprenyl) during the third incubation period to measure the residual effects, if any, from the pervious incubation period. In the final incubation period, the hypothalami were incubated with high K^+ KRH, which, had the same composition as the KRH except that it contained 60 mM KCl and 57 mM NaCl, to check the viability of the tissue. Hypothalami were rinsed with KRH in between incubations. After each incubation period, incubation medium was removed and 0.1 M HClO4 was added to it at the ratio of 25:1 (v/v) and was stored at −70° C. until analysis for neurotransmitters by HPLC-EC. At the end of the treatment period, the hypothalami were transferred to microsample vials containing 0.1 M HClO4 and were stored at −70° C. At the time of HPLC analysis, the hypothalami were homogenized in KRH and centrifuged at 1000 RPM for 15 min and the supernatant was used for the measurement of neurotransmitters.
(§5) The HPLC-EC system has been described before (Palazzolo et al., Life Sci. 47: 2105-2109 (1990); Palazzolo et al., Life Sci. 51: 1797-1802 (1992); ThyagaRajan, S.; Meites et al., Endocrinol. 136: 1103-1110 (1995)). Briefly, it consisted of an LC-4B electrochemical detector (Bioanalytical Systems, West Lafayette, Ind.); a phase II, 5 μm ODS reverse phase, C-18 column; a glassy carbon electrode, a C-R6A Chromatopac integrator, a CTO-6A column oven, and an LC-6A pump (Shimadzu, Columbia, Md.). […]

[2] = test system: release of dihydroxyphenylacetic acid (DOPAC) from the hypothalamus; assay: DOPAC release and content, static in vitro incubation of hypothalami, HPLC-EC; assay type: cell-based, Sprague-Dawley rats; conditions: for concentration of DOPAC in the hypothalamus at the end of the experiment: control 416±176; for DOPAC release: second incubation period; for DOPAC release after removal of deprenyl from the medium: third incubation period
Protocol: as §1, §2, §3, §4, §5

serum prolactin = conditions: young and old rats; cited from earlier work
old male rats = conditions: cited from earlier work
[3] = test system: carcinogen-induced mammary tumor; conditions: rats; cited from earlier work
[4] = test system: retired racing female greyhounds; assay: induction of heat in retired racing female greyhounds previously treated with testosterone; assay type: in vivo, greyhound (canine); conditions: oral in saline, seven animals, saline control 22%
Protocol: Retired racing female greyhounds that were previously treated with testosterone were used in the experiments. Nine animals were used in the control group, and seven animals each were used in the low dose (0.5 mg/kg body weight deprenyl) and the high dose (0.75 mg/kg body weight) groups. Control animals were treated with oral saline solution. Experimental, animals were treated with one of the two doses of deprenyl orally dissolved in saline.

[5] = test system: release of dopamine (DA) from the hypothalamus; assay: dopamine release and content, static in vitro incubation of hypothalami, HPLC-EC; assay type: cell-based, Sprague-Dawley rats; conditions: for DA release after removal of deprenyl: third incubation period; for DA content of the hypothalami at the end of the experiment: p<0.05
Protocol: as §1, §2, §3, §4, §5

[6] = test system: release of norepinephrine (NE) from the hypothalamus; assay: norepinephrine release and content, static in vitro incubation of hypothalami, HPLC-EC; assay type: cell-based, Sprague-Dawley rats; conditions: for content of NE in the hypothalami at the end of the experiment: control 1104±588
Protocol: as §1, §2, §3, §4, §5

[7] = test system: release of 5-hydroxyindoleacetic acid (5-HIAA) from the hypothalamus; assay: 5-HIAA release and content, static in vitro incubation of hypothalami, HPLC-EC; assay type: cell-based, Sprague-Dawley rats
Protocol: as §1, §2
The hypothalami were weighed and divided into two halves along the sagittal plane and placed in a 12×75 mm glass tube containing 300 μl of Krebs-Ringer Henseleit (KRH) solution. The hypothalami were incubated in a static in vitro incubation system as described previously (Palazzolo et al., Life Sci. 47: 2105-2109 (1990); Palazzolo et al., Life Sci. 51: 1797-1802 (1992)). Briefly, the incubation system consisted of a plexiglass water bath, a magnetic circulator fin, and a thermostat coil. The bath was filled with distilled water and the thermostat was switched on at least an hour before the perfusion. […]

greyhound bitches = conditions: Bruyette et al., personal communication; cited from earlier work

Molecule: N[C@@H](Cc1ccc(O)c(O)c1)C(=O)O [1-dopa]
- restoration of heat and the estrous cycle (old acyclic rats): restoration of heat and the estrous cycle

Molecule: CC(C)NNC(=O)c1ccncc1 [Iproniazid, 4-pyridinecarboxyylic acid, 2-(1-methylethyl)hydrazine]
- restoration of heat and the estrous cycle (old acyclic rats): reinstate the estrous cycle

Molecule: C#CCN(C)C(C)Cc1ccccc1 (stereo not drawn) [deprenyl, phenethylamine, N, alpha-dimethyl-N-2-propynyl]
- 5-HT release ([1]; 0.1 mM deprenyl): 186.4±62
- 5-HT release on stimulation with high potassium KRH ([1]; 0.1 mM group): significant increase
- 5-HT release ([1]; 1 mM deprenyl): 438.4±85
- content of 5-HT at the end of the experiment ([1]; 1 mM group compared to the control group): significantly reduced
- 5-HT release ([1]; 10 mM deprenyl): 670.3±199
- content of 5-HT at the end of the experiment ([1]; 10 mM group compared to the control group): significantly reduced
- 5-HT release upon removal of deprenyl from the medium ([1]; third incubation period): declined rapidly
- concentration of DOPAC in the hypothalamus at the end of the experiment ([2]; 0.1 mM deprenyl group): 290.0±110
- DOPAC release ([2]; 0.1 mM deprenyl): did not produce any change
- concentration of DOPAC in the hypothalamus at the end of the experiment ([2]; 1 mM deprenyl group, p<0.05): 86.8±34
- DOPAC release ([2]; 1 mM deprenyl, pretreatment 267.7±46, p<0.01): 139.6±19
- DOPAC release after removal of deprenyl from the medium ([2]; 1 mM group): remained low
- concentration of DOPAC in the hypothalamus at the end of the experiment ([2]; 10 mM deprenyl group, p<0.05): 34.3±16
- DOPAC release ([2]; 10 mM deprenyl, pretreatment 285.6±28, p<0.001): 68.9±20
- DOPAC release after removal of deprenyl from the medium ([2]; 10 mM group): remained low
- DOPAC release on stimulation with high potassium KRH ([2]; all the deprenyl-treated groups (0.1, 1, 10 mM)): did not produce any increase
- serum prolactin concentrations (serum prolactin): decreases serum prolactin concentrations
- sexual activity (old male rats): increase sexual activity
- restoration of heat and the estrous cycle (old acyclic rats): restore heat and the estrous cycle
- carcinogen-induced mammary tumor growth [3]: inhibits carcinogen-induced mammary tumor growth
- animals that came to heat ([4]; higher dose 0.75 mg/kg body weight): 86%
- animals that came to heat ([4]; low dose 0.5 mg/kg body weight): Fifty
- DA release ([5]; 0.1 mM deprenyl, second incubation period, not significantly different from pretreatment): 125.1±49
- DA release ([5]; 0.1 mM group, high K+ KRH, significant increase): 393.1±109
- DA release after removal of deprenyl ([5]; 0.1 mM group): brought DA release to pretreatment levels
- DA release ([5]; 1 mM deprenyl, second incubation period, pretreatment 42.9±6): 154.8±59
- DA content of the hypothalami at the end of the experiment ([5]; 1 mM group compared to 0 mM group): significantly less
- DA release ([5]; 1 mM group, high K+ KRH, significant increase): 106.8±27
- DA release after removal of deprenyl ([5]; 1 mM group): brought DA release to pretreatment levels
- DA release ([5]; 10 mM deprenyl, second incubation period): 197.7±63
- DA content of the hypothalami at the end of the experiment ([5]; 10 mM group compared to 0 mM group): significantly less
- DA release ([5]; 10 mM group, high potassium KRH, not statistically significant from pretreatment): 85.3±40
- DA release after removal of deprenyl ([5]; 10 mM group): returned DA release to basal levels
- content of NE in the hypothalami at the end of the experiment ([6]; 0.1 mM deprenyl group): 743.3±179
- NE release (Mean±S.E.) ([6]; 0.1 mM deprenyl, second incubation period (KRH+DEP), pretreatment 196.9±43, increase not significant): 252.3±48 pg/mg hypothalamus
- NE release (Mean±S.E.) ([6]; 0.1 mM group, fourth period, high potassium KRH, p<0.05): 538.2±142 pg/mg hypothalamus
- NE release (Mean±S.E.) ([6]; 0.1 mM group, third incubation period (KRH alone after deprenyl)): 185.1±42 pg/mg hypothalamus
- content of NE in the hypothalami at the end of the experiment ([6]; 1 mM deprenyl group, p<0.05): 388.1±71
- NE release (Mean±S.E.) ([6]; 1 mM group, last period, high K+ KRH, p<0.05): 375.2±92 pg/mg hypothalamus
- NE release (Mean±S.E.) ([6]; 1 mM group, third incubation period (KRH alone)): 267.7±28 pg/mg hypothalamus
- content of NE in the hypothalami at the end of the experiment ([6]; 10 mM deprenyl group, p<0.05): 281.3±91
- NE release (Mean±S.E.) ([6]; 10 mM deprenyl, second incubation period, pretreatment 132.8±56, p<0.05): 799.9±141 pg/mg hypothalamus
- NE release (Mean±S.E.) ([6]; 10 mM group, high K+ KRH, not statistically significant): 222.4±57 pg/mg hypothalamus
- NE release (Mean±S.E.) ([6]; 10 mM group, third incubation period (KRH alone)): 159.8±41 pg/mg hypothalamus
- content of 5-HIAA in the hypothalami at the end of the experiment ([7]; deprenyl treated groups compared to the control group, P<0.05): significantly low
- release of 5-HIAA ([7]; hypothalami incubated with different doses of deprenyl (0.1, 1, 10 mM)): dose-dependant decrease

Molecule: GnRH: hypothalamic hormone called gonadotropin-releasing hormone (QHWSYGLRPG; ends and bridges not checked; UniProt P01148 24-33, looked up)
- induction of heat (greyhound bitches): unable to induce heat
